Consider 45 compounds from ChEMBL document CHEMBL1201862, “PubChem BioAssay data set” (2004).

Structures are written as SMILES. Activity calls are given as the source filed them.

The test system of one assay is H9c2. Put plainly: cells. The assay is classed as functional, cell-based. The conditions noted are these: Rattus norvegicus, H9c2, Myocardium.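 Further: confirmatory concentration-response retest of ultra-high-throughput screening hits for modulation of myocardial damage; cell death induced by hydrogen peroxide oxidative stress; compound pretreatment for 60 min then peroxide exposure for 2 h; potency is for protecting the cells against peroxide damage rather than for killing them.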
A short description of assay [1]: luciferase reporter signal suppression in cells – H4 neuroglioma cells, luminescence, dose response (AID 1990). The assay is classed as functional, cell-based. (In a reporter assay the amount or activity of a reporter protein is the signal.)
Assay [2] in a line: alpha-synuclein stem-loop luciferase translation blockers – H4 neuroglioma cells, luminescence, confirmation (AID 1988). In kind it is functional, cell-based.
Assay [3] in a line: Luminescence Cell-Based Dose Response HTS to Identify Inhibitors of 5'UTR Stem-Loop Driven Prion Protein mRNA Translation in H4 Neuroglioblastoma Cells. [Related pubchem assays: 1827 (Project Summary), 1813 (Primary HTS)]. In kind it is functional.
The target of assay [4] is T1, Ubiquitin-conjugating enzyme E2 N (Homo sapiens, UniProt P61088).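 Further: Dose-response confirmation in a TR-FRET assay detecting UBC13-driven polyubiquitin chain formation, inhibition measured.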
T1 sequence (P61088 whole entry): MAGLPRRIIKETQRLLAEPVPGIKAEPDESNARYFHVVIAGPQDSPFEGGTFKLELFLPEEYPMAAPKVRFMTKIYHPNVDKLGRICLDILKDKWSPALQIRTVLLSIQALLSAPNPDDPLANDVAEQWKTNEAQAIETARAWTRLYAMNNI
In kind it is functional.

For a further assay, the system named is Vero. Briefly: cells. In kind it is functional. Conditions: Chlorocebus sabaeus.
For a further assay, the target named is Large T antigen (Simian virus 40, UniProt P03070). In kind it is functional, Betapolyomavirus macacae.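 Further: Confirmatory-stage PubChem screen for compounds that inhibit SV40 T antigen.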
Assay [5] can be described thus: NIH-3T3 fibroblast cytotoxicity, dose response, cytotoxicity control, cell-based, fluorescence, Alamar Blue, secondary assay (AID 2327).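 Further: NIH-3T3 mouse fibroblasts cultured with fluconazole at 8 µg/mL.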 In kind it is functional. (In general: The colour change of resazurin is a common sign of viable cells or microbes.)
Assay [6] is described as follows: fluconazole-exposed Candida albicans growth modulators – fluorescence, retest, confirmation (AID 2467). In kind it is functional, cell-based.
Assay [7] is described as follows: microbe, parasite or virus in culture. In kind it is functional. Conditions: Mycobacterium tuberculosis.
Assay [8] has as its target Induced myeloid leukemia cell differentiation protein Mcl-1 (Homo sapiens, UniProt Q07820). In kind it is functional.
The target in assay [9] is T2, Corticotropin-releasing factor receptor 2/Corticotropin-releasing factor-binding protein (Homo sapiens, UniProt P24387+Q13324).
T2 sequence (Q13324 whole entry): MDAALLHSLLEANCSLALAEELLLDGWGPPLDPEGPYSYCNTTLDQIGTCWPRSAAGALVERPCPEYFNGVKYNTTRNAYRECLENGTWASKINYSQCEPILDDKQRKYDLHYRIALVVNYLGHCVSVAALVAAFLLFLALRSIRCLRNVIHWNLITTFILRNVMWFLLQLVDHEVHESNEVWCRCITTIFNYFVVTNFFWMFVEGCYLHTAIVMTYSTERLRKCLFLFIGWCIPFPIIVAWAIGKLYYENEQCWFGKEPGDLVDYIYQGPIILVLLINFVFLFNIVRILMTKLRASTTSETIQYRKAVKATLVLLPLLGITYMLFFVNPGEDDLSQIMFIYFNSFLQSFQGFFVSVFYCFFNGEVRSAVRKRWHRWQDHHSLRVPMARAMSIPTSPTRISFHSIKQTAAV
T2 sequence (P24387 whole entry): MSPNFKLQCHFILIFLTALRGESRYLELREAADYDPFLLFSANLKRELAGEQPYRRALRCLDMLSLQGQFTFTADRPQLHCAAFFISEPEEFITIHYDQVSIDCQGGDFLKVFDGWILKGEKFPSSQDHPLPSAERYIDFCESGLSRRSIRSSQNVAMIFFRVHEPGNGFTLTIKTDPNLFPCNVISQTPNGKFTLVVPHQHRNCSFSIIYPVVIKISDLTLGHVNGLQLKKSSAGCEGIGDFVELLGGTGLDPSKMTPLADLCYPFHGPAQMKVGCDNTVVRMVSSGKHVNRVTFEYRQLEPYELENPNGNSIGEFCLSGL
Put plainly: activators of CRF receptor 2 with binding protein – uHTS hits, confirmation (AID 602473). In kind it is functional. Conditions: read-out: EC50_Mean.

The next assay has as its target Paired box protein Pax-8 (Homo sapiens, UniProt Q06710). Briefly: PAX8 transcriptional activity inhibition in RMG-I – RMG-I cells, luciferase, cherry-pick, dose response (AID 687027).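 Further: luciferase reporter driven by Pax8 target thyroperoxidase promoter measured by SteadyGlo luminescence.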 In kind it is functional, cell-based.
The next assay has as its target Genome polyprotein (dengue virus type 2, UniProt P29990). Put plainly: flavivirus cap methylation enzyme inhibition – biochemical, confirmation dose response, primary screen (AID 588689). In kind it is functional.

Induced myeloid leukemia cell differentiation protein Mcl-1, sequence (Q07820 whole entry): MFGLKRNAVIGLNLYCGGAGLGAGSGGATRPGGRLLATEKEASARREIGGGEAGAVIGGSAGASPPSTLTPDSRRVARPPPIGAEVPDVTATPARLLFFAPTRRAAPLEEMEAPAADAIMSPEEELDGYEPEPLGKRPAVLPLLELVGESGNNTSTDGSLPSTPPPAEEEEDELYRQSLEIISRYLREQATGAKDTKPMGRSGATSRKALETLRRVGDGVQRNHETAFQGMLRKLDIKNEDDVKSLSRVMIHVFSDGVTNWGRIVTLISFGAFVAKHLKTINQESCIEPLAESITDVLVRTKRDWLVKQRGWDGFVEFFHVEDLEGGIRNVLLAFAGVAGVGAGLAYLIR
Large T antigen, sequence (P03070 whole entry): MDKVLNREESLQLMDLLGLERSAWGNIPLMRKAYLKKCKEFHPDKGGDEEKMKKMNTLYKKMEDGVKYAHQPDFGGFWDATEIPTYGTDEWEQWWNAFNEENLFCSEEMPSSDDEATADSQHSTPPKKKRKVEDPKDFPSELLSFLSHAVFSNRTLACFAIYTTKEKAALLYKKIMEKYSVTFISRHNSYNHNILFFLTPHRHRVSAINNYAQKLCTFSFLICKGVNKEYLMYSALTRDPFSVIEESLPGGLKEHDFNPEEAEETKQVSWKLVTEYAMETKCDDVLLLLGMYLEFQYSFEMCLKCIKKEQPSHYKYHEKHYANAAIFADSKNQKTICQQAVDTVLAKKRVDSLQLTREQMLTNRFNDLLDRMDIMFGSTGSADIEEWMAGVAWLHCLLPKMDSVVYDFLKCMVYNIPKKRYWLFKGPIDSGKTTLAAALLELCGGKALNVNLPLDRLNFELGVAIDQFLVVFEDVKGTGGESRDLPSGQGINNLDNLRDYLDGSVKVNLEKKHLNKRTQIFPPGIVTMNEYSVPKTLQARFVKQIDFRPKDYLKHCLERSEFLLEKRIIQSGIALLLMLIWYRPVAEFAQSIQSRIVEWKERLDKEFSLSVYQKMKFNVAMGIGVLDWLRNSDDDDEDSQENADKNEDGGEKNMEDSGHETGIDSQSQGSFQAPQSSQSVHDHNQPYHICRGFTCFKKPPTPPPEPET
Paired box protein Pax-8, sequence (Q06710 whole entry): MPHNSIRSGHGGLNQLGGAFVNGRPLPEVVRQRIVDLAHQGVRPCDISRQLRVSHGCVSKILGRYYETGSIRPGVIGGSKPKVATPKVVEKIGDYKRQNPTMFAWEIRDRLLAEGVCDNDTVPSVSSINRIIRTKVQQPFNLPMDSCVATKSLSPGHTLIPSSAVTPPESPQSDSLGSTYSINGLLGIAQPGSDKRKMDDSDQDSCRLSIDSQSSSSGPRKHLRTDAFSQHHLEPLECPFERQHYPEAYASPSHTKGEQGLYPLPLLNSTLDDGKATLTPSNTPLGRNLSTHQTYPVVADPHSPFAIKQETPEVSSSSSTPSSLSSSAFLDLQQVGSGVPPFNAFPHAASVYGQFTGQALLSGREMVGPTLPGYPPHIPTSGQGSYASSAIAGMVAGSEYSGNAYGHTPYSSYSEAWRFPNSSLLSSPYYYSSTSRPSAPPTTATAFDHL
Genome polyprotein, sequence (P29990 2492-3391 limits assumed): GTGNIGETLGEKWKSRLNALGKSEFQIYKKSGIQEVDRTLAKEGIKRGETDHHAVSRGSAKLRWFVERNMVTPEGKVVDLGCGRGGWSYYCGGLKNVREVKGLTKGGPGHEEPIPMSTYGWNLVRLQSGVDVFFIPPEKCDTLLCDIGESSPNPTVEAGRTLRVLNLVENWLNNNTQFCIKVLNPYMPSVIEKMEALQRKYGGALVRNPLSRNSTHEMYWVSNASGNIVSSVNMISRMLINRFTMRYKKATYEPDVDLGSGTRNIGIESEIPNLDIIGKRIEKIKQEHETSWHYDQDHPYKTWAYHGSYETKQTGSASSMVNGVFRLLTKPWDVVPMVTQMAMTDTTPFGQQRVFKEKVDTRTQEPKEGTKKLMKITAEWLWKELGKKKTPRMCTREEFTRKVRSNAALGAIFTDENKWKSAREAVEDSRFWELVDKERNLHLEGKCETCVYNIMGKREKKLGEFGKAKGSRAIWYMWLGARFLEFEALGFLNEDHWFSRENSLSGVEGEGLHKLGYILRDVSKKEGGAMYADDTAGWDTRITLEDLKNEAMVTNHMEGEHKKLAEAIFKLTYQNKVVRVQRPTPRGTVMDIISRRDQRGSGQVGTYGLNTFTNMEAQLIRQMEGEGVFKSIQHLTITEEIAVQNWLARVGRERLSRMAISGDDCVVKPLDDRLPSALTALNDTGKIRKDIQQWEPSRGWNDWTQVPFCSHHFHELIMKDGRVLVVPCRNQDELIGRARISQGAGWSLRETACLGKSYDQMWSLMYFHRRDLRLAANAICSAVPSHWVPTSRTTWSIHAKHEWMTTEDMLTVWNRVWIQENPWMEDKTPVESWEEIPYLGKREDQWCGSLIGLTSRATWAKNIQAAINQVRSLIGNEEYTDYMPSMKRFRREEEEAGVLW

On to `Cn1c(=O)[nH]c(=O)c2c1nc(Br)n2CC(O)COc1ccc(Cl)cc1` (stereo not drawn), for which, in the assay on H9c2, the IC50 (commonly the concentration needed to halve the response being measured) is > 79 µM (inactive).

With `COc1ccc(C(=O)Nc2ccc[n+](-c3nc4ccccc4nc3[N-]S(=O)(=O)c3ccccc3)c2)cc1`, the EC50 in [1], in [2] and in assay [3] was > 120 µM (not active) each time.

As to `COc1cc(C(CCN2CCCCC2)c2c(OC)cc(OC)c3c(-c4ccccc4)cc(=O)oc23)cc(OC)c1OC` (stereo not drawn), in assay [4], the IC50 was > 20 µM (inactive). The CC50 with Vero is > 25 µM (active).

Take `Nc1ccc(OCCCc2c(N)nc(N)nc2N)cc1`: the figures for the IC50 (in [4]; at Large T antigen) were > 20 µM (inactive) and 7.73 µM (active), respectively.

For `COc1ccc(C(=O)Nc2ccccc2N2CCOCC2)cc1[N+](=O)[O-]`, the EC50 in [1], in [2] and in [3] was > 120 µM (not active) each time.

In the case of `CCc1ccccc1N=C(S)N1CCCCCC1`, the EC50 is 42.1 µM (active) in assay [5] and > 38 µM (not active) in assay [6].

With `O=C(NCc1ccco1)C1CC(=O)N(c2ccc(O)cc2)C1` (stereo not drawn), the IC50 on Large T antigen is 19.8 µM (active).

Consider `Oc1nnc(Cc2ccccn2)c2ccccc12`, for which, in the assay on H9c2, the IC50 is 39.4 µM (inactive).

For `CCn1c(SCC(=O)Nc2nc3ccc(C)cc3s2)nc2c(c1=O)SC(C)C2` (stereo not drawn), the CC50 in assay [7] was > 40 µM (active).

Regarding `CCN(Cc1ccccc1)S(=O)(=O)c1ccc(C(=O)N(CCCN(C)C)c2nc3cc4c(cc3s2)OCO4)cc1`, in assay [4], the IC50 is > 20 µM (inactive).

Take `O=c1cc(CSc2ccc([N+](=O)[O-])cc2)nc2sccn12`: in the assay on H9c2, the IC50 was > 79 µM (inactive).

As to `CC1=C(C#N)C(=O)N(C2CCS(=O)(=O)C2)C(=O)/C1=C\c1ccc(C)o1` (stereo not drawn), the IC50 was 47.9 µM (active) at Large T antigen and 1.6 µM (active) in assay [8].

On to `Nc1nc(O)c2c(n1)N=C1C(=C(O)c3ccccc31)C2c1cccc2ccccc12` (stereo not drawn), for which the IC50 in [8] was 3.73 µM (active).

In the case of `CCCCn1c(=O)[nH]c(=O)c2c1nc(-c1ccc(OC(F)F)c(OC)c1)n2C`, the EC50 in assay [1] is 24.6 µM (active); in [2], > 120 µM (not active); in assay [3], > 120 µM (not active).

Consider `CCN1C(=O)/C(=C/c2nc(O)c3ccccc3n2)c2ccccc21`, for which, in the assay on H9c2, the IC50 was > 79 µM (inactive).

With `CCCCn1c(N2CCCC2)nc2c1c(=O)[nH]c(=O)n2C`, the EC50 in [1], in assay [2] and in assay [3] was > 120 µM (not active) each time.

Consider `CCOC(=O)N1CCC(NC(=O)c2cc3c(-c4ccccc4F)nn(C)c3s2)CC1`, for which, in the assay with H9c2, the IC50 was 10.6 µM (active).

With `Oc1cc2c(cc1O)[C@H]1c3ccccc3CN[C@@H]1CC2`, the IC50 at Large T antigen is 80 µM (active).

Turning to `O=C1Cc2ccccc2Sc2ccc(O)cc21`, the IC50 in [4] was > 20 µM (inactive). Besides, the EC50 in assay [9] was > 53 µM (inactive).

For `c1ccc2c(c1)CCN(c1nc(CN3CCOCC3)nc3sc4c(c13)CCCC4)C2`, in assay [7], the CC50 was > 40 µM (active).

Regarding `CCOc1ncccc1C(=O)Nc1cccc(-c2nc3cccnc3s2)c1`, in the assay with H9c2, the IC50 was > 79 µM (inactive).

For `O=C1c2ccccc2NC(c2cnc3ccccc3n2)N1O` (stereo not drawn), the EC50 was > 160 µM (inactive) in [5] and > 38 µM (not active) in assay [6].

`CN(C)C(S)=Nc1ccc(N2CCOCC2)cc1`: the IC50 on Large T antigen was 11 µM (active).

Turning to `CC(=O)c1c(C)oc2ccc(N(C(C)=O)S(=O)(=O)c3ccc(Cl)c([N+](=O)[O-])c3)cc12`, the EC50 in [1] is 7.87 µM (active); in assay [2] it was 7.59 µM (active); in assay [3] it was 8.95 µM (active).

For `CCNc1nc(SCc2ccccc2)nc(N2CCOCC2)n1`, the values for the EC50 in assay [1], in [2] and in assay [3] were 13.1 µM (active), 16.8 µM (active) and > 120 µM (not active), respectively.

For the compound `COc1cc(C=C(C(C)=O)C(C)=O)ccc1O`, the IC50 on Large T antigen was 8.18 µM (active).

`O=S(=O)(Nc1cccc(-c2cn3cccnc3n2)c1)c1ccc(Cl)cc1`: at Paired box protein Pax-8, the AC50 (as a rule, the midpoint of the concentration-response curve, whichever way the signal moves) was 43.5 µM (active).

For `COc1ccc(NCc2nnc(O)c3ccccc23)cc1`, the IC50 in the assay on H9c2 was > 79 µM (inactive).

Regarding `O=C(CN1C(=O)COc2ccccc21)NCCCN1CCc2ccccc2C1`, the EC50 in [5] is > 150 µM (inactive); in assay [6] it was > 38 µM (not active).

Take `O=C(/C=C\c1ccco1)c1ccc(NC(=O)c2ccco2)cc1`: the IC50 in assay [8] was 2.78 µM (active).

Regarding `CC1=NN(c2ccccc2)C(=O)/C1=C/c1ccc(-c2ccc(C)c(C(=O)O)c2)o1`, at Large T antigen, the IC50 is 35 µM (active).

Turning to `O=C(Nc1ccccn1)c1cc(-c2cccnc2)nc2ccc(Br)cc12`, the EC50 in assay [1] was 10.9 µM (active); in assay [2], 8.63 µM (active); in assay [3] it was 13.5 µM (active).

As for `CN(CCc1cn[nH]c1)Cc1nc(C(c2ccccc2)c2ccccc2)no1`, the AC50 at Paired box protein Pax-8 was 65 µM (active).

In the case of `CCCOC(=O)c1c(NC(=O)C2C3C=CC(C3)C2C(=O)O)sc2c1CCC(C)C2` (stereo not drawn), the IC50 at Genome polyprotein is 50.3 µM (active).

For the compound `CC(=O)NC(c1cccs1)c1cc(Cl)c2ccccc2c1O` (stereo not drawn), the IC50 in [4] was > 20 µM (inactive).

Take `CSc1nc2ccc(S(=O)(=O)Nc3c(C)n(C)n(-c4ccccc4)c3=O)cc2s1`: in the assay on H9c2, the IC50 was > 79 µM (inactive).

In the case of `O=C(CSc1nnnn1C1CCCCC1)Nc1nc2c(s1)CCCC2`, the CC50 in assay [7] is > 40 µM (active).

For `O=c1cc(-c2cccnc2)oc2c1ccc1ccccc12`, in the assay with H9c2, the IC50 was > 79 µM (inactive).

For the compound `CN(C(=O)CCN1C(=O)/C(=C/c2ccc(F)cc2)SC1=S)C1CCS(=O)(=O)C1` (stereo not drawn), in the assay with Vero, the CC50 was > 25 µM (active).

Regarding `COc1ccc(/C=N/NC(=O)c2cccnc2)cc1CN1CCc2ccccc2C1`, the IC50 in the assay on H9c2 is 10.6 µM (active).

Regarding `COc1cc(C(=O)N/N=C/C2CC=CCC2)cc(OC)c1OC` (stereo not drawn), the EC50 in assay [1], in assay [2] and in assay [3] was > 120 µM (not active) each time.

In the case of `C/C(=N\NC(=O)CSCc1ccc([N+](=O)[O-])cc1)c1cccc(Br)c1`, the IC50 in [4] was > 20 µM (inactive).

As to `CCc1cc(/C(Cc2ccccn2)=N\Nc2ccccc2)c(O)cc1O`, in assay [7], the CC50 is > 40 µM (active).

On to `CCc1ccc(/N=C\C23c4ccccc4C(c4ccccc42)C2C(=O)N(c4ccc(OC)cc4)C(=O)C23)cc1` (stereo not drawn), for which the CC50 in assay [7] is > 40 µM (active).

On to `CO[C@H]1[C@@H](O)[C@@H](O)O[C@@H](O[C@H]2CC[C@@]3(C)[C@H](CC[C@@H]4[C@@H]3[C@H](O)C[C@]3(C)[C@@H](C5=CC(=O)OC5)CC[C@]43O)C2)[C@@H]1O`, for which the AC50 on Paired box protein Pax-8 is 0.809 µM (active).
